Values belong to the molecule of their own block, whether it stands above or below them.
How the values were obtained:
[1] = test system: Aspergillus niger ATCC #16404; assay: Minimum inhibitory concentration by zone of inhibition assay; assay type: cell-based; conditions: 5 days contact, Day-Engley neutralizing media
Excerpt: A. niger ATCC #16404 was contacted with each sulfone for 5 days in a Day-Engley neutralizing media.

[2] = test system: Chaetomium globosum (a soft rot, ATCC 6205); conditions: C. globosum; minimum concentration for 50% zone of inhibition, 9 days contact
Description: (§1) Prod J. 45(1):86-9 (1995), was performed to determine the minimum concentration of uracil necessary to achieve a 50% zone of inhibition over 9 days of contact time.

[3] = test system: Trametes versicolor (a white rot; ATCC 42462); conditions: T. versicolor; for IC50 (ppm): minimum concentration for 50% zone of inhibition, 9 days contact
Description: as §1

[4] = test system: Gloephyllium trabeum (a brown rot, ATCC 11539); conditions: G. trabeum; for IC50 (ppm): minimum concentration for 50% zone of inhibition, 9 days contact
Description: as §1

[5] = test system: Postia placenta (a brown rot, ATCC 11538); conditions: P. placenta; for IC50 (ppm): minimum concentration for 50% zone of inhibition, 9 days contact
Description: as §1

IC50 (ppm) [2]: 3.22 ppm
IC50 (ppm) [3]: 6.12 ppm
IC50 (ppm) [4]: 3.22 ppm
IC50 (ppm) [5]: <5.0 ppm
Compound: O=c1c(Cl)cn(CC#CI)c(=O)n1CC#CI
5 Day Minimum Inhibitory Concentration Aspergillus niger [1]: 10 to 30 mg/L
concentration at which a total kill was observed [3]: no more than 50 ppm
concentration at which a total kill was observed [4]: no more than 50 ppm
concentration at which a total kill was observed [5]: no more than 50 ppm

Compound: Cc1cn(CC#CI)c(=O)n(CC#CI)c1=O [1N,3N-Bis(3-iodo-2-propynyl)-5-methyluracil]
5 Day Minimum Inhibitory Concentration Aspergillus niger [1]: 10 to 30 mg/L

Compound: O=c1ccn(CC#CI)c(=O)n1CC#CI [1N, 3N-bis(3-iodo-2-propynyl)-uracil, 1N,3N-Bis(3-iodo-2-propynyl)-uracil]
5 Day Minimum Inhibitory Concentration Aspergillus niger [1]: 3 to 10 mg/L

Compound: O=c1c(F)cn(CC#CI)c(=O)n1-c1ccco1 [1N-(3-iodo-2-propynyl)-3N-(2-furanyl)-5-fluorouracil]
5 Day Minimum Inhibitory Concentration Aspergillus niger [1]: 30 to 100 mg/L

Compound: O=c1ccn(CC#CI)c(=O)n1C1O[C@H](CO)[C@@H](O)[C@H]1O (stereo partly drawn) [1N-(3-iodo-2-propynyl)-3N-(D-1-ribose)-uracil]
5 Day Minimum Inhibitory Concentration Aspergillus niger [1]: 100 to 300 mg/L

Compound: O=c1[nH]cc([N+](=O)[O-])c(=O)n1CC#CI [3N-(3-iodo-2-propynyl)-5-nitrouracil]
5 Day Minimum Inhibitory Concentration Aspergillus niger [1]: 30 to 100 mg/L

Compound: CCCCCCCCCC[N+](C)(C)CCCCCCCCCC.[Cl-] [didecydimethyl ammonium chloride, didecyldimethyl ammonium chloride, reference compound]
IC50 (ppm) [2]: 62.9 ppm
IC50 (ppm) [3]: 53.9 ppm
IC50 (ppm) [4]: 6.45 ppm
IC50 (ppm) [5]: 5.6 ppm

Source: patent US6344460B1, “Propynyl uracils” (Lonza Inc., priority 2000, dated 2002)
